{"source": "patent US5190923A", "about": "“Peptide compounds containing a cyclic amide structure” (Adir Et Compagnie, priority 1990, dated 1993)", "type_in_all_cases": "in vivo", "key": {"[1]": {"system": "sodium-dependent choline uptake (HACU)", "assay": "Cholinergic deficit induced by barbiturate narcosis in mice (hippocampal HACU)", "conditions": "mouse hippocampus"}, "[2]": {"system": "xylazine-induced loss of righting reflex", "assay": "Xylazine induced inhibition of the righting reflex in rats", "conditions": "IP", "description": "The administration of a central α2 agonist, xylazine, to rats leads to loss of the animal's righting reflex. This effect is antagonized by yohimbine (α2 antagonist) and by agents facilitating noradrenaline release.\nTRH antagonizes the effect of xylazine, and the median effective dose is close to 10 mg/kg IP. Under the same conditions, the ED50 of the compounds of Examples 1 and 5 are 0.1 and 0.3 mg/kg, respectively."}, "[3]": {"system": "oxotremorine-induced tremor", "assay": "Oxotremorine-induced tremor in mice", "conditions": "for minimal active dose (potentiation of tremor): IP", "description": "Administered at a dose of 0.5 mg/kg IP, oxotremorine, a non-selective M1 -M2 muscarinic agonist leads to cholinergic symptoms of central origin, such as tremor. In control animals, the maximum tremor-inducing effect is observed after 15 minutes, and this effect disappears completely in the course of 45 to 60 minutes.\nThe administration of TRH (10 mg/kg IP) 30 minutes before that of oxotremorine potentiates the tremor (+50%) at its peak of intensity (15 minutes), but prolongs it to only a very small extent (15 minutes:+20%). The minimal active dose is 5 mg/kg.\nUnder the same conditions, the compounds of the invention also exert the same potentiating effect, but at much lower minimal active doses, and this effect persists for a further 60 minutes after the injection of oxotremorine. Thus, the minimal active doses are, for example, as follows: […]"}, "[4]": {"conditions": "30 minutes before oxotremorine 0.5 mg/kg IP"}}, "data": [{"compound": "NC(=O)[C@@H]1CCCN1C(=O)[C@H](Cc1cnc[nH]1)NC(=O)[C@@H]1CCC(=O)N1", "note": "[TRH]", "values": [{"measurement": "counteraction of the fall in HACU", "setting": "[1]; 10 mg/kg IP, administered 30 minutes before pentobarbital", "value": -1.9, "unit": "%"}, {"measurement": "counteraction of the fall in HACU", "setting": "[1]; 10 mg/kg IP, administered simultaneously with pentobarbital (60 mg/kg IP)", "value": -35, "unit": "%"}, {"measurement": "counteraction of the fall in HACU", "setting": "[1]; 30 mg/kg IP, administered 30 minutes before pentobarbital", "value": "+4.8%"}, {"measurement": "median effective dose (ED50), antagonism of the effect of xylazine", "setting": "[2]", "value": "~10", "unit": "mg/kg"}, {"measurement": "potentiation of the tremor at its peak of intensity (15 minutes)", "setting": "[3]; 10 mg/kg IP, 30 minutes before oxotremorine 0.5 mg/kg IP", "value": "+50%"}, {"measurement": "prolongation of the tremor", "setting": "[3]; 10 mg/kg IP, 30 minutes before oxotremorine, printed time 15 minutes", "value": "+20%"}, {"measurement": "minimal active dose (potentiation of tremor)", "setting": "[3]; [4]", "value": 5, "unit": "mg/kg"}, {"measurement": "potentiation of the tremor measured at the peak", "setting": "[3]; administered 60 minutes before the muscarinic agonist", "value": "no longer potentiates the tremor"}]}, {"compound": "AZEP-(S)(N.tau.-Me)His-(1S,3S,4R)ABH-NH2 [Example 1]", "values": [{"measurement": "counteraction of the fall in HACU", "setting": "[1]; 1 mg/kg IP, administered 30 minutes before induction of narcosis", "value": -25.5, "unit": "%"}, {"measurement": "counteraction of the fall in HACU", "setting": "[1]; 3 mg/kg IP, administered 30 minutes before induction of narcosis", "value": -61.1, "unit": "%"}, {"measurement": "median effective dose (ED50), antagonism of the effect of xylazine", "setting": "[2]", "value": 0.1, "unit": "mg/kg"}, {"measurement": "minimal active dose (potentiation of tremor)", "setting": "[3]; [4]", "value": 0.3, "unit": "mg/kg"}]}]}
